Experimental data from ChEMBL document CHEMBL1201862, “PubChem BioAssay data set” (2004).
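Assay format: 96-well plates, 48-hour exposure. GI50 marks 50% less growth.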 The source made the active and inactive calls. No stated cut-off is given here; in the data, active = GI50 up to about 1.1 µM and inactive = higher.

Key:
Experiment in all cases: growth of human tumour cells (NCI), 48 h
SW-620 = test system: SW-620
Malme-3M = test system: Malme-3M
UACC-257 = test system: UACC-257
786-0 = test system: 786-0
MDA-MB-435 = test system: MDA-MB-435
SF-295 = test system: SF-295
COLO 205 = test system: COLO 205
DU-145 = test system: DU-145
A498 = test system: A498
SN12C = test system: SN12C
SR = test system: SR
SK-MEL-28 = test system: SK-MEL-28
MDA-N = test system: MDA-N
UACC-62 = test system: UACC-62
HT-29 = test system: HT-29
MDA-MB-231 = test system: MDA-MB-231
TK-10 = test system: TK-10
SF-268 = test system: SF-268
SK-OV-3 = test system: SK-OV-3

Measured: GI50

COC1(OC)C(/C(N)=C\O)=NC(C)(C)N1O
inactive: SW-620 > 100 µM | Malme-3M > 100 µM | UACC-257 > 100 µM | 786-0 > 100 µM | MDA-MB-435 > 100 µM | SF-295 > 100 µM | COLO 205 57 µM | DU-145 > 100 µM | A498 > 100 µM | SN12C > 100 µM | SR > 100 µM | SK-MEL-28 > 100 µM | MDA-N > 100 µM | UACC-62 > 100 µM | HT-29 > 100 µM | MDA-MB-231 > 100 µM

COc1ccc(-n2c(=O)[nH]n(C(C)=O)c2=O)cc1
inactive: SW-620 > 100 µM | Malme-3M > 100 µM | UACC-257 > 100 µM | 786-0 > 100 µM | MDA-MB-435 > 100 µM | TK-10 > 100 µM | SF-295 > 100 µM | COLO 205 > 100 µM | DU-145 > 100 µM | A498 > 100 µM | SN12C > 100 µM | SF-268 > 100 µM | SR > 100 µM | SK-MEL-28 > 100 µM | MDA-N > 100 µM | UACC-62 > 100 µM | HT-29 > 100 µM | MDA-MB-231 > 100 µM

COc1ccc(C[C@@H](CO)NC2=C(C#N)CCC2)cc1
inactive: SW-620 49.2 µM | Malme-3M 34.7 µM | UACC-257 34.6 µM | 786-0 64.1 µM | MDA-MB-435 48 µM | TK-10 63.8 µM | SF-295 29.7 µM | COLO 205 43.7 µM | DU-145 50.6 µM | A498 31.9 µM | SN12C > 100 µM | SF-268 58.9 µM | SK-MEL-28 74.1 µM | MDA-N 28.6 µM | UACC-62 31.5 µM | HT-29 33.4 µM | MDA-MB-231 15.1 µM | SK-OV-3 49.1 µM

Cc1ccc2nc(-n3c(/C=C/c4ccccc4O)nc4ccccc4c3=O)sc2c1
inactive: SW-620 > 100 µM | UACC-257 > 100 µM | 786-0 > 100 µM | MDA-MB-435 > 100 µM | TK-10 > 100 µM | SF-295 > 100 µM | COLO 205 > 100 µM | DU-145 > 100 µM | A498 > 100 µM | SK-MEL-28 > 100 µM | MDA-N > 100 µM | UACC-62 > 100 µM | HT-29 > 100 µM | MDA-MB-231 > 100 µM | SK-OV-3 > 100 µM
